What was measured:
[1] = Cell viability assay (MTT), normal cells; assay type: cell-based; details: human, MCF-10A normal mammary gland epithelial cells, four-day incubation
Procedure: The impact of novel compounds 10a-o and 13a-e on cell viability was examined using the MCF-10A (human mammary gland epithelial) normal cell line. The MTT test was employed to assess the cell viability of the novel compounds after a four-day incubation with MCF-10A cells ([El-Sherief et al., 2019]; [Ramadan et al., 2020]).
The effects of compounds 10a-o and 13a-e on cell viability were assessed using the human mammary gland epithelial normal cell line (MCF-10A). The MTT assay assessed the cell viability of compounds 10a-o and 13a-e following a four-day incubation with MCF-10A cells ([El-Sherief et al., 2019]; [Ramadan et al., 2020]). Check Supplementary Appendix A for additional information.
4.2. Biological evaluation
4.2.1 Cell Viability assay (MTT assay)
MTT assay was performed to investigate the effect of the synthesized compounds on mammary epithelial cells (MCF-10A). The cells were propagated in medium consisting of Ham's F-12 medium/ Dulbecco's modified Eagle's medium (DMEM) (1:1) supplemented with 10% foetal calf serum, 2 mM glutamine, insulin (10 μg/mL), hydrocortisone (500 ng/mL) and epidermal growth factor (20 ng/mL). Trypsin ethylenediamine tetra acetic acid (EDTA) was used to passage the cells after every 2-3 days. 96-well flat-bottomed cell culture plates were used to seed the cells at a density of 10^4 cells mL-1. The medium was aspirated from all the wells of culture plates after 24 h followed by the addition of synthesized compounds (in 200 μL medium to yield a final concentration of 0.1% (v/v) dimethyl sulfoxide) into individual wells of the plates.
Four wells were designated to a single compound. The plates were allowed to incubate at 37°C for 96 h. Afterwards, the medium was aspirated and 3-[4,5-dimethylthiazol-2-yl]-2,5-diphenyltetrazolium bromide (MTT) (0.4 mg/mL) in medium was added to each well and subsequently incubated for 3 h. The medium was aspirated and 150 μL dimethyl sulfoxide (DMSO) was added to each well. The plates were vortexed followed by the measurement of absorbance at 540 nm on a microplate reader. The results were presented as inhibition (%) of proliferation in contrast to controls comprising 0.1%

prostatic - PC-3 = assay: Antiproliferative assay (MTT) PC-3; details: for IC50: read-out: Antiproliferative activity IC50 ± SEM (µM) PC-3, PC-3, MTT
breast - MCF-7 = assay: Antiproliferative assay (MTT) MCF-7; details: for IC50: read-out: Antiproliferative activity IC50 ± SEM (µM) MCF-7, MCF-7, MTT
colon - HCT-116 = assay: Antiproliferative assay (MTT) HCT-116; details: for IC50: read-out: Antiproliferative activity IC50 ± SEM (µM) HCT-116, HCT-116, MTT
- MDAMB-231 = assay: Antiproliferative assay (MTT) MDAMB-231
pancreatic - MDAMB-231 = assay: Antiproliferative assay (MTT) MDAMB-231; details: read-out: Antiproliferative activity IC50 ± SEM (µM) MDAMB-231; MDAMB-231, MTT
[2] = test system: four human cancer cell lines (HCT-116, PC-3, MCF-7, MDAMB-231); assay: Antiproliferative assay, mean of four cell lines (GI50); details: for Reduced potency compared to doxorubicin (GI50) / Reduced potency compared to sorafenib (GI50): GI50 ratio; for IC50: Homo sapiens, read-out: GI50 (average IC50)
tubulin = assay: Tubulin polymerization inhibition assay (Cytoskeleton kit);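 for all read-outs here: Cell-free tubulin polymerization read by fluorescent reporter enhancement over a 30 min reaction, with the compound-free kit control taken as 100% activity and inhibition relative to it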; details: for Tub %inh / Tub. enzyme inhibition assay %inhibition: 30 min; for Tub %inh: YB-EGY run; for Tub K.Activity: EC = 120, YB-EGY run; for IC50: read-out: Tubulin inhibition IC50 ± SEM, triplicate for each tested concentration; for Tub. enzyme inhibition assay %inhibition: codes 522-537 run; for Tub. enzyme inhibition assay K. Activity: control = 120, codes 522-537 run

Cc1nc(SCC(=O)Nc2nc(-c3ccc(Cl)cc3)cs2)sc1C(=O)/C=C/c1ccc(F)cc1 [Compound 10h, (E)-N-(4-(4-chlorophenyl)thiazol-2-yl)-2-((5-(3-(4-fluorophenyl)acryloyl)-4-methylthiazol-2-yl)thio)acetamide]
viability at 96 h, 50 µM [1]: 85%
Average of Relative viability of cells (%) (prostatic - PC-3; PC-3, 1.56 µM): 100%
Average of Relative viability of cells (%) (prostatic - PC-3; PC-3, 3.125 µM): 100%
Average of Relative viability of cells (%) (prostatic - PC-3; PC-3, 6.25 µM): 100%
Average of Relative viability of cells (%) (prostatic - PC-3; PC-3, 12.5 µM): 93.5%
Average of Relative viability of cells (%) (prostatic - PC-3; PC-3, 25 µM): 72.4%
Average of Relative viability of cells (%) (prostatic - PC-3; PC-3, 50 µM): 55.8%
Average of Relative viability of cells (%) (prostatic - PC-3; PC-3, 100 µM): 36.5%
IC50 (prostatic - PC-3): 61 ± 3.5 µM
Average of Relative viability of cells (%) (breast - MCF-7; MCF-7, 1.56 µM): 100%
Average of Relative viability of cells (%) (breast - MCF-7; MCF-7, 3.125 µM): 94.8%
Average of Relative viability of cells (%) (breast - MCF-7; MCF-7, 6.25 µM): 76.5%
Average of Relative viability of cells (%) (breast - MCF-7; MCF-7, 12.5 µM): 53.9%
Average of Relative viability of cells (%) (breast - MCF-7; MCF-7, 25 µM): 50.2%
Average of Relative viability of cells (%) (breast - MCF-7; MCF-7, 50 µM): 37.1%
Average of Relative viability of cells (%) (breast - MCF-7; MCF-7, 100 µM): 23.6%
IC50 (breast - MCF-7): 24 ± 1.7 µM
Average of Relative viability of cells (%) (colon - HCT-116; HCT-116, 1.56 µM): 100%
Average of Relative viability of cells (%) (colon - HCT-116; HCT-116, 3.125 µM): 97.6%
Average of Relative viability of cells (%) (colon - HCT-116; HCT-116, 6.25 µM): 79.5%
Average of Relative viability of cells (%) (colon - HCT-116; HCT-116, 12.5 µM): 69.3%
Average of Relative viability of cells (%) (colon - HCT-116; HCT-116, 25 µM): 52.8%
Average of Relative viability of cells (%) (colon - HCT-116; HCT-116, 50 µM): 39.4%
Average of Relative viability of cells (%) (colon - HCT-116; HCT-116, 100 µM): 20.2%
IC50 (colon - HCT-116): 29 ± 1.9 µM
Average of Relative viability of cells (%) (- MDAMB-231; MDAMB-231, 1.56 µM): 100%
Average of Relative viability of cells (%) (- MDAMB-231; MDAMB-231, 3.125 µM): 85.7%
Average of Relative viability of cells (%) (- MDAMB-231; MDAMB-231, 6.25 µM): 68.5%
Average of Relative viability of cells (%) (- MDAMB-231; MDAMB-231, 12.5 µM): 47.4%
Average of Relative viability of cells (%) (- MDAMB-231; MDAMB-231, 25 µM): 37.1%
Average of Relative viability of cells (%) (- MDAMB-231; MDAMB-231, 50 µM): 26.7%
Average of Relative viability of cells (%) (- MDAMB-231; MDAMB-231, 100 µM): 21.6%
IC50 (pancreatic - MDAMB-231): 15 ± 1.3 µM
Reduced potency compared to doxorubicin (GI50) [2]: at least 2.5 fold
Reduced potency compared to sorafenib (GI50) [2]: ≥ 1.5 fold
IC50 [2]: 32 µM
Tub %inh (tubulin; conc 0.1 (unit not given)): 9.85%
Tub K.Activity (tubulin; conc 0.1 (unit not given)): 108.18
Tub %inh (tubulin; conc 1 (unit not given)): 26.6%
Tub K.Activity (tubulin; conc 1 (unit not given)): 88.132
Tub %inh (tubulin; conc 10 (unit not given)): 44.8%
Tub K.Activity (tubulin; conc 10 (unit not given)): 66.269
Tub %inh (tubulin; conc 50 (unit not given)): 65.5%
Tub K.Activity (tubulin; conc 50 (unit not given)): 41.405
Tub %inh (tubulin; conc 100 (unit not given)): 84.5%
Tub K.Activity (tubulin; conc 100 (unit not given)): 18.607
IC50 (tubulin): 7.95 ± 0.24 µM

Cc1ccc(-c2csc(NC(=O)CSc3nc(C)c(C(=O)/C=C/c4ccc(F)cc4)s3)n2)cc1 [Compound 10m, (E)-2-((5-(3-(4-fluorophenyl)acryloyl)-4-methylthiazol-2-yl)thio)-N-(4-(p-tolyl)thiazol-2-yl)acetamide]
viability at 96 h, 50 µM [1]: 87%
Average of Relative viability of cells (%) (prostatic - PC-3; PC-3, 1.56 µM): 100%
Average of Relative viability of cells (%) (prostatic - PC-3; PC-3, 3.125 µM): 98.5%
Average of Relative viability of cells (%) (prostatic - PC-3; PC-3, 6.25 µM): 84.1%
Average of Relative viability of cells (%) (prostatic - PC-3; PC-3, 12.5 µM): 70.2%
Average of Relative viability of cells (%) (prostatic - PC-3; PC-3, 25 µM): 57.4%
Average of Relative viability of cells (%) (prostatic - PC-3; PC-3, 50 µM): 46.7%
Average of Relative viability of cells (%) (prostatic - PC-3; PC-3, 100 µM): 36.8%
IC50 (prostatic - PC-3): 43 ± 2.5 µM
Average of Relative viability of cells (%) (breast - MCF-7; MCF-7, 1.56 µM): 100%
Average of Relative viability of cells (%) (breast - MCF-7; MCF-7, 3.125 µM): 91.6%
Average of Relative viability of cells (%) (breast - MCF-7; MCF-7, 6.25 µM): 72.7%
Average of Relative viability of cells (%) (breast - MCF-7; MCF-7, 12.5 µM): 53.5%
Average of Relative viability of cells (%) (breast - MCF-7; MCF-7, 25 µM): 37.2%
Average of Relative viability of cells (%) (breast - MCF-7; MCF-7, 50 µM): 28.4%
Average of Relative viability of cells (%) (breast - MCF-7; MCF-7, 100 µM): 22.3%
IC50 (breast - MCF-7): 18 ± 1.4 µM
Average of Relative viability of cells (%) (colon - HCT-116; HCT-116, 1.56 µM): 100%
Average of Relative viability of cells (%) (colon - HCT-116; HCT-116, 3.125 µM): 99.8%
Average of Relative viability of cells (%) (colon - HCT-116; HCT-116, 6.25 µM): 87.4%
Average of Relative viability of cells (%) (colon - HCT-116; HCT-116, 12.5 µM): 67.3%
Average of Relative viability of cells (%) (colon - HCT-116; HCT-116, 25 µM): 54.1%
Average of Relative viability of cells (%) (colon - HCT-116; HCT-116, 50 µM): 43.7%
Average of Relative viability of cells (%) (colon - HCT-116; HCT-116, 100 µM): 28.4%
IC50 (colon - HCT-116): 35 ± 2.2 µM
Average of Relative viability of cells (%) (- MDAMB-231; MDAMB-231, 1.56 µM): 100%
Average of Relative viability of cells (%) (- MDAMB-231; MDAMB-231, 3.125 µM): 87.1%
Average of Relative viability of cells (%) (- MDAMB-231; MDAMB-231, 6.25 µM): 68.5%
Average of Relative viability of cells (%) (- MDAMB-231; MDAMB-231, 12.5 µM): 55.2%
Average of Relative viability of cells (%) (- MDAMB-231; MDAMB-231, 25 µM): 43.7%
Average of Relative viability of cells (%) (- MDAMB-231; MDAMB-231, 50 µM): 32.3%
Average of Relative viability of cells (%) (- MDAMB-231; MDAMB-231, 100 µM): 24.8%
IC50 (pancreatic - MDAMB-231): 20 ± 1.6 µM
Reduced potency compared to doxorubicin (GI50) [2]: at least 2.5 fold
Reduced potency compared to sorafenib (GI50) [2]: ≥ 1.5 fold
IC50 [2]: 29 µM
Tub. enzyme inhibition assay %inhibition (tubulin; conc 0.01 (unit not given)): 5.97%
Tub. enzyme inhibition assay K. Activity (tubulin; conc 0.01 (unit not given)): 112.84
Tub. enzyme inhibition assay %inhibition (tubulin; conc 0.1 (unit not given)): 16.8%
Tub. enzyme inhibition assay K. Activity (tubulin; conc 0.1 (unit not given)): 99.836
Tub. enzyme inhibition assay %inhibition (tubulin; conc 1 (unit not given)): 30%
Tub. enzyme inhibition assay K. Activity (tubulin; conc 1 (unit not given)): 84.045
Tub. enzyme inhibition assay %inhibition (tubulin; conc 10 (unit not given)): 58%
Tub. enzyme inhibition assay K. Activity (tubulin; conc 10 (unit not given)): 50.371
Tub. enzyme inhibition assay %inhibition (tubulin; conc 100 (unit not given)): 81.2%
Tub. enzyme inhibition assay K. Activity (tubulin; conc 100 (unit not given)): 22.611
IC50 (tubulin): 7.92 ± 0.29 µM
Tub. (IC50) IC50±SD (tubulin; supplement raw data, lab codes): 4.039 ± 0.15 µg/mL

From article PMC12040969, “Design, synthesis, in silico studies, and apoptotic antiproliferative activity of novel thiazole-2-acetamide derivatives as tubulin polymerization inhibitors” (Frontiers in Chemistry, 2025)
